Literature values as cited in patent US20230212091A1, “Compositions for Increasing Nitrogen Sources Life Span in Plant Growth Mediums and Methods of Making” (Soilgenic Technologies, LLC, priority 2017, published 2023).

Conditions: at 20° C.

## N#CN=C(N)N [DCD, dicyandiamide]
  solubility in water: approximately 32 grams/liter
